Reference: US20240140958A1, “FUSED QUADRACYCLIC COMPOUNDS, COMPOSITIONS AND USES THEREOF” (Tabomedex Biosciences, Inc., priority 2021, published 2024)

What was measured:
[1] = molecular target: T1, MAPKAPK2 Recombinant Human Protein (Homo sapiens, UniProt P49137); test: MK2 kinase assay (Z'-LYTE kinase assay kit); conditions: inhibition of MK2 biochemical activity; 90 min incubation at room temperature
T1 construct: purchased ThermoFisher pv3317
Description: Materials and Reagents for Measuring Inhibition of MK2 Biochemical Activity: • 1) Assay plate: 384 Well Low Volume Black Round Bottom Polystyrene NBS Microplate (Corning, Cat.No. 4514) • 2) MK2 kinase assay kit: Z' LYTE KINASE ASSAY KIT (ThermoFisher, Cat.No. pv3177) • 3) MAPKAPK2 Recombinant Human Protein (ThermoFisher, Cat.No. pv3317) • 4) DMSO (Vetec, Cat.No. V900090) • 5) DTT (Sigma, Cat.No. D0632)
MK2 Kinase Assay Procedure: • 1) Dispense 5 μl Kinase/Peptide Mixture to each wells of 384-well plate • 2) Add 2.5 μl 4× Test Compound to each well • 3) Add 2.5 μl 4× ATP Solution to each well • 4) After 90 minutes incubation at room temperature, add 5 μl Development Solution to each well • 5) After 60 minutes incubation at room temperature, add 5 μl stop Solution to each well • 6) Measure the Coumarin (Ex. 400 nm, Em. 445 nm) and Fluorescein (Ex. 400 nm, Em. 520 nm) emission signals on an Envision plate reader (PerkinElmer)

THP-1 cells = test: THP-1 cell assay: LPS-stimulated pSer78-Hsp27 ELISA; type: cell-based; conditions: Homo sapiens, PMA-differentiated THP-1 cells, compound 60 min before 20 ng/mL LPS for 30 min
Source text: Materials and Reagents for Measuring Activity in THP-1 Cells: • 1) THP-1 cells (Cell bank of Shanghai) • 2) PMA (Sigma, Cat.No. P1585) • 3) LPS (Sigma, Cat.No. L4516) • 4) 96-well tissue-culture treated plate (Grenier, Cat.No. 655180) • 5) FBS (Thermofisher, Cat.No. 10100147) • 6) Complete EDTA-free protease inhibitor Cocktail (Roche, Cat.No. 4693132001) • 7) PhosSTOP (Roche, Cat.No. 4906845001) • 8) Phosphor-Hsp27 (Ser78) Sandwich Elisa kit (CST, Cat.No. 7295)
Cell Assay Procedure: • 1) Day 0: THP-1 cells are seeded at 50K/well in complete media (1640+10% FBS+50 μM β-ME)+20 ng/mL PMA in 96-well plate • 2) Day 1: PMA containing media is removed after 24 h incubation (37° C./5% CO2), and replaced with complete growth media. Cells are incubated an additional 48 h to recover. • 3) Day 3: Cells are incubated with or without compounds at indicated concentrations for 60 min, prior to addition of 20 ng/mL LPS. Cells are stimulated for 30 min with LPS, washed 1× with ice cold PBS, lysed on ice in Lysis buffer provided in ELISA kit with Roche protease & phosphatase inhibitors. Extracts are clarified by refrigerated centrifugation & stored at −80° C. until pHsp27/total Hsp27 ELISAs • 4) Day 3 or Day 4: Cell Signaling Technology ELISA is run for pSer78-Hsp27 on lysates diluted to approximately 2.5 μg/well. • 5) The absorbance at 450 nm was read in a SpectraMax plus plate reader (Molecular Devices). Data was processed using GraphPad prism 8.0.

T1 sequence (P49137 whole entry): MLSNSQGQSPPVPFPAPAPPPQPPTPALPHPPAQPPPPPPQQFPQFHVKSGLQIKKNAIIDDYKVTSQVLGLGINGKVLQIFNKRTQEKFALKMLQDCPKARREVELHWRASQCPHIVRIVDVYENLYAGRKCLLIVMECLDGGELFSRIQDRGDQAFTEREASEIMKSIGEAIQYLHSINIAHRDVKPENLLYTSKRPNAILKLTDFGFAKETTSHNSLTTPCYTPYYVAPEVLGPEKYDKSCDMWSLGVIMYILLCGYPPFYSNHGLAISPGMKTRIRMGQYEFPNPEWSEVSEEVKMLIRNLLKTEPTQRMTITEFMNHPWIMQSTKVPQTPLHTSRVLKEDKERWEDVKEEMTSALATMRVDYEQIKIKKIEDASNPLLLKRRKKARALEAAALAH

Compound | IC50 [1] | IC50 (THP-1 cells)
CN1CC(C)(CN2C(=O)CN(c3ccc4c(c3)Cn3cc(-c5ccc(C#N)cc5)cc3-c3nccn3-4)C2=O)C1 [Example 65, 4-(7-(3-((1,3-Dimethylazetidin-3-yl)methyl)-2,4-dioxoimidazolidin-1-yl)-9H-benzo[e]imidazo[2,1-c]pyrrolo[1,2-a][1,4]diazepin-12-yl)benzonitrile] | < 50 nM | < 50 nM
N#Cc1ccc(-c2cc3n(c2)Cc2cc(N4C[C@@H](CN5CCC5)OC4=O)ccc2-n2ccnc2-3)cc1 [Example 5] | < 50 nM | < 50 nM
N#Cc1ccc(-c2cc3n(c2)Cc2cc(N4C[C@@H](CN5CCC(F)C5)CC4=O)ccc2-n2ccnc2-3)cc1 (stereo partly drawn) [Example 26, 4-(7-((4R)-4-((3-Fluoropyrrolidin-1-yl)methyl)-2-oxopyrrolidin-1-yl)-9H-benzo[e]imidazo[2,1-c]pyrrolo[1,2-a][1,4]diazepin-12-yl)benzonitrile] | 50 to 100 nM | 100 to 200 nM
CC(C)(N)[C@@H]1CN(c2ccc3c(c2)Cn2cc(-c4ccc(C#N)cc4)cc2-c2nccn2-3)C(=O)O1 (single isomer, unassigned) [Example 21] | < 50 nM | < 50 nM
CN(C)CC[C@H]1CCN(c2ccc3c(c2)Cn2cc(-c4ccc(C#N)cc4)cc2-c2nccn2-3)C1=O (single isomer, unassigned) [Example 41] | < 50 nM | < 50 nM
N#Cc1ccc(-c2cc3n(c2)Cc2cc(N4C[C@@H](CNC5(CO)CC5)CC4=O)ccc2-n2ccnc2-3)cc1 [Example 16] | 50 to 100 nM | 400 to 500 nM
CN1CCC(NC(=O)c2ccc3c(c2)Cn2cc(-c4ccc(C#N)cc4)cc2-c2nccn2-3)C1 (stereo not drawn) [Example 105] | < 50 nM | 500 to 1000 nM
CN(C)[C@@H]1CCN(C(=O)Nc2ccc3c(c2)Cn2cc(-c4ccc(C#N)cc4)cc2-c2nccn2-3)C1 [Example 74] | < 50 nM | 50 to 100 nM
CNC[C@H]1CC(=O)N(c2ccc3c(c2)Cn2cc(-c4ccc(C#N)cc4)cc2-c2nccn2-3)C1 [Example 9] | < 50 nM | 50 to 100 nM
CN1CC(NC(=O)c2ccc3c(c2)Cn2cc(-c4ccc(C#N)cc4)cc2-c2nccn2-3)C1 [Example 119, 2-(4-Cyanophenyl)-N-(1-methylazetidin-3-yl)-9H-benzo[e]imidazo[2,1-c]pyrrolo [1,2-a][1,4]diazepine-7-carboxamide] | < 50 nM | 500 to 1000 nM
CN(C)[C@H]1CCN(C(=O)Nc2ccc3c(c2)Cn2cc(-c4ccc(C#N)cc4)cc2-c2nccn2-3)C1 [Example 73] | < 50 nM | < 50 nM
CN1CC(CN2C(=O)CN(c3ccc4c(c3)Cn3cc(-c5ccc(C#N)cc5)cc3-c3nccn3-4)C2=O)C1 [Example 67] | < 50 nM | > 1000 nM
CC(C)(N)[C@@H]1CC(=O)N(c2ccc3c(c2)Cn2cc(-c4ccc(C#N)cc4)cc2-c2nccn2-3)C1 [Example 53] | < 50 nM | 300 to 400 nM
Cc1nnc2n1-c1ccc(N3C[C@@H](CN4CCC4)CC3=O)cc1Cn1cc(-c3ccc(C#N)cc3)cc1-2 [Example 82] | 50 to 100 nM | 300 to 400 nM
N#Cc1ccc(-c2cc3n(c2)Cc2cc(N4CC5(CNC5)CC4=O)ccc2-n2ccnc2-3)cc1 [Example 22, 4-(7-(7-Oxo-2,6-diazaspiro[3.4]octan-6-yl)-9H-benzo[e]imidazo[2,1-c]pyrrolo [1,2-a][1,4]diazepin-12-yl)benzonitrile] | < 50 nM | 1000 to 1500 nM
C[C@H]1[C@@H](CN(C)C)OC(=O)N1c1ccc2c(c1)Cn1cc(-c3ccc(C#N)cc3)cc1-c1nccn1-2 [Example 61, 4-(7-((4S,5R)-5-((Dimethylamino)methyl)-4-methyl-2-oxooxazolidin-3-yl)-9H-benzo[e]imidazo[2,1-c]pyrrolo[1,2-a][1,4]diazepin-12-yl)benzonitrile] | 50 to 100 nM | 300 to 400 nM
CC1(C)CCN1C[C@H]1CC(=O)N(c2ccc3c(c2)Cn2cc(-c4ccc(C#N)cc4)cc2-c2nccn2-3)C1 [Example 19] | < 50 nM | 50 to 100 nM

Compound | IC50 [1] | IC50 (THP-1 cells)
CC(C)N1CC(NC(=O)c2ccc3c(c2)Cn2cc(-c4ccc(C#N)cc4)cc2-c2nccn2-3)C1 [Example 128] | < 50 nM | 500 to 1000 nM
N#Cc1ccc(-c2cc3n(c2)Cc2cc(N4C[C@@H](CNC5CC5)CC4=O)ccc2-n2ccnc2-3)cc1 [Example 15] | < 50 nM | < 50 nM
CN(C)C[C@@H]1CCN1C(=O)c1ccc2c(c1)Cn1cc(-c3ccc(C#N)cc3)cc1-c1nccn1-2 [Example 116] | < 50 nM | < 50 nM
CN(C)CC1CC12CCN(c1ccc3c(c1)Cn1cc(-c4ccc(C#N)cc4)cc1-c1nccn1-3)C2=O (stereo not drawn) [Example 47, 4-(7-(1-((Dimethylamino)methyl)-4-oxo-5-azaspiro[2.4]heptan-5-yl)-9H-benzo[e]imidazo[2,1-c]pyrrolo[1,2-a][1,4]diazepin-12-yl)benzonitrile] | < 50 nM | 100 to 200 nM
CN(CCO)C[C@H]1CC(=O)N(c2ccc3c(c2)Cn2cc(-c4ccc(F)cc4)cc2-c2nccn2-3)C1 [Example 89, (R)-1-(12-(4-Fluorophenyl)-9H-benzo[e]imidazo[2,1-c]pyrrolo[1,2-a][1,4]diazepin-7-yl)-4-(((2-hydroxyethyl)(methyl)amino)methyl)pyrrolidin-2-one] | 50 to 100 nM | 50 to 100 nM
N#Cc1ccc(-c2cc3n(c2)Cc2cc(C(=O)N4CC(C#N)C4)ccc2-n2ccnc2-3)cc1 [Example 110] | < 50 nM | 50 to 100 nM
CN(C)C[C@H]1CCN1C(=O)c1ccc2c(c1)Cn1cc(-c3ccc(C#N)cc3)cc1-c1nccn1-2 [Example 115] | < 50 nM | 200 to 300 nM
CN(CCO)CC1CCN(c2ccc3c(c2)Cn2cc(-c4ccc(C#N)cc4)cc2-c2nccn2-3)C1=O (stereo not drawn) [Example 37] | 50 to 100 nM | 50 to 100 nM
CN1CC2(CCN(c3ccc4c(c3)Cn3cc(-c5ccc(C#N)cc5)cc3-c3nccn3-4)C2=O)C1 [Example 24, 4-(7-(2-Methyl-5-oxo-2,6-diazaspiro[3.4]octan-6-yl)-911-benzo[e]imidazo [2,1-c]pyrrolo[1,2-a][1,4]diazepin-12-yl)benzonitrile] | < 50 nM | < 50 nM
CN(C)CCN1CCN(c2ccc3c(c2)Cn2cc(-c4ccc(C#N)cc4)cc2-c2nccn2-3)C1=O [Example 57, 4-(7-(3-(2-(Dimethylamino)ethyl)-2-oxoimidazolidin-1-yl)-9H-benzo[e]imidazo[2,1-c]pyrrolo[1,2-a][1,4]diazepin-12-yl)benzonitrile] | < 50 nM | < 50 nM
CN(C)C[C@@H]1CN(c2ccc3c(c2)Cn2cc(-c4ccc(C#N)cc4)cc2-c2nccn2-3)C(=O)O1 [Example 1, (R)-4-(7-(5-((Dimethylamino)methyl)-2-oxooxazolidin-3-yl)-9H-benzo [e]imidazo[2,1-c]pyrrolo[1,2-a][1,4]diazepin-12-yl)benzonitrile] | < 50 nM | < 50 nM
N#Cc1ccc(-c2cc3n(c2)Cc2cc(NC(=O)C4CCNC4)ccc2-n2ccnc2-3)cc1 (stereo not drawn) [Example 76, N-(12-(4-Cyanophenyl)-9H-benzo[e]imidazo[2,1-c]pyrrolo[1,2-a][1,4]diazepin-7-yl)pyrrolidine-3-carboxamide] | < 50 nM | 1000 to 1500 nM
CC(C)(N)CN1C(=O)CN(c2ccc3c(c2)Cn2cc(-c4ccc(C#N)cc4)cc2-c2nccn2-3)C1=O [Example 68] | < 50 nM | < 50 nM
CN(C)C1CCN(C(=O)Nc2ccc3c(c2)Cn2cc(-c4ccc(C#N)cc4)cc2-c2nccn2-3)C1 (stereo not drawn) [Example 72] | < 50 nM | < 50 nM
CN(C)[C@H]1C[C@H](NC(=O)c2ccc3c(c2)Cn2cc(-c4ccc(C#N)cc4)cc2-c2nccn2-3)C1 [Example 126] | < 50 nM | 500 to 1000 nM
CN1CC2(C1)CN(C(=O)c1ccc3c(c1)Cn1cc(-c4ccc(C#N)cc4)cc1-c1nccn1-3)C2 [Example 109] | 50 to 100 nM | 200 to 300 nM
